According to patent publication US20260007802A1, “ANNEALED MICROGEL PARTICLE SYSTEMS AND METHODS” (Tempo Therapeutics, Inc., priority 2023, published 2026):

What was measured:
[1] = Chemical annealing kinetics, elastic modulus over time (Instron); format: physicochemical
Method: In the rat intradermal study (see Example 2), MAP was annealed using 0.1 mM PETMA (Pentaerythrivol tetras(2-mercaptoacetate)), a 4-thiol containing crosslinker. The thiol groups react with the free vinyl sulfones on the microgel particles in a thiol-ene Michael addition reaction. […] The optimization of the chemical annealing was performed with formulation 1-3. […] Briefly, gels initially formulated at a volume fraction of 100% was thoroughly mixed with the crosslinkers (0.1-0.2 mM) at different pHs, which led to diluting gels to 80%. The elastic modulus was measured at different time points using Instron.
Then, the different HA-MAP formulations were annealed using the selected annealing agent at 0.2 mM at pH 7.4. […] Elastic modulus over time was measured using Instron.
The final volume fraction for annealing was 80% for all annealing conditions.

3T3 fibroblasts = test: In vitro cytocompatibility, WST-8 proliferation assay (Example 2); format: cell-based, mouse; conditions: WST-8, days 1, 3 and 6
Method: Prior to animal experiments, formulations 1-3 and formulations 4-5 were tested (all in the presence and absence of annealing chemistry) for cytocompatibility using immortalized and primary cells. The WST-8 proliferation assay was used to assess cell viability and compare to positive (vehicle) and negative (cytotoxic agent) controls. The formulations used are listed in Table 5 below, along with their characteristics.
In vitro experiments were performed in well plate format. Cells were grown in culture media in adherent culture, and then exposed to either (i) hydrogel microgel particle suspensions, (ii) hydrogel microgel particle suspensions actively undergoing the annealing process, or (iii) the reaction conditions of the annealing process including soluble components but in the absence of hydrogel microgel particles. After exposure, cells were grown in adherent culture for […], measuring proliferation at 1, 3, and 6 days after exposure.
3T3 fibroblasts were grown to 90% confluent and then suspended in DMEM at 2.5×10^6 cells/mL. Then, 2 μL of cell suspension was mixed with MAP (see Table 1 for description of the different formulations tested for cytocompatibility) and added to a 96-well plate. […] Cell viability was then measured at 450 nm using WST-8 kit.

Row | SMILES | time to full annealing ([1]; annealing agent with formulations 1-3 gels, pH 7.4) | time before it is annealed ([1]; pH 6.5) | cytotoxic effect on cell viability (3T3 fibroblasts) | effect on kinetic of annealing and final stiffness ([1]; 0.3% wt, three batches of 4a, 0.2 mM PEG-dithiol 3.4 kDa, pH 7.4)
1 | O=C(CS)OCC(COC(=O)CS)(COC(=O)CS)COC(=O)CS [PETMA, Pentaerythritol tetrakis(2-mercaptoacetate)] | ≤ 5 min | < 10 min | dose dependent cytotoxic effect | –
2 | CCN(CC)CC(=O)Nc1c(C)cccc1C [lidocaine] | – | – | – | reduces the final stiffness after annealing and slightly slows down the reaction
